Data taken from patent publication US9938258B2 (Karyopharm Therapeutics Inc., priority 2012, dated 2018).
Where two headings read alike, the source gives them in different places.

Tests used:
MS751 cells = assay: MTT cell proliferation assay, MS751; type: cell-based, human; conditions: read-out: MTT Assay IC50, MS751
Procedure: (§1) The MTT cell proliferation assay was used to study the cytotoxic properties of the compounds. The assay was performed according to the method described by Roche Molecular Biochemicals, with minor modifications. The assay is based on the cleavage of the tetrazolium salt, MTT, in the presence of an electron-coupling reagent. The water-insoluble formazan salt produced must be solubilized in an additional step. Cells grown in a 96-well tissue culture plate were incubated with the MTT solution for approximately 4 hours. After this incubation period, a water-insoluble formazan dye formed. After solubilization, the formazan dye was quantitated using a scanning multi-well spectrophotometer (ELISA reader). […] The cells were seeded at 5,000-10,000 cells in each well of 96-well plate in 100 μL of fresh culture medium and were allowed to attach overnight. The stock solutions of the compounds were diluted in 100 μL cell culture medium to obtain eight concentrations of each test compound, ranging from 1 nM to 30 μM. […] All optical densities were measured at 490 nm using a Vmax Kinetic Microplate Reader (Molecular Devices). In most cases, the assay was performed in duplicate and the results were presented as a mean percent inhibition to the negative control±SE. The following formula was used to calculate the percent of inhibition: Inhibition (%)=(1-(ODo/OD)) ×100.
(§2) The compounds were tested against MS751, Z138 and 3T3 cells. The MS751 cell line is derived from a metastasis to lymph node of human cervix from a patient diagnosed with squameous cell carcinoma of the cervix. The Z138 cell line is a mature B-cell acute lymphoblastic leukemia cell line derived from a patient with chronic lumphocytic leukemia. 3T3 cells are standard fibroblast cells; they were originally isolated from Swiss mouse embryo tissue.

Z138 cells = assay: MTT cell proliferation assay, Z138; type: cell-based; conditions: read-out: MTT Assay IC50, Z138
Procedure: as §1, §2

3T3 cells = assay: MTT cell proliferation assay, 3T3; type: cell-based, mouse; conditions: read-out: MTT Assay IC50, 3T3
Procedure: as §1, §2

[1] = Homo sapiens, MS751, MS751 cells, approximately 64-72 hours incubation
[2] = Homo sapiens, Z-138, Z138 cells, approximately 64-72 hours incubation
[3] = Mus musculus, NIH3T3, 3T3 cells, approximately 64-72 hours incubation
[4] = MS751 cells, approximately 64-72 hours incubation
[5] = Z138 cells, approximately 64-72 hours incubation
[6] = 3T3 cells, approximately 64-72 hours incubation
[7] = Homo sapiens, MS751, MS751 cells, eight concentrations 1 nM to 30 μM, incubation approximately 64-72 hours
[8] = Homo sapiens, Z-138, Z138 cells, eight concentrations 1 nM to 30 μM, incubation approximately 64-72 hours
[9] = Mus musculus, NIH3T3, 3T3 cells, eight concentrations 1 nM to 30 μM, incubation approximately 64-72 hours

SMILES	IC50 (MS751 cells; [7]) [µM]	IC50 (Z138 cells; [8]) [µM]	IC50 (3T3 cells; [9]) [µM]	other results
CC(=O)c1ccc(-c2cc(Cl)c3c(c2)CC(CNC(=O)/C=C/c2ccc(N)nc2)O3)s1 (single isomer, unassigned) [Compound 308, (E)-N-((5-(5-acetylthiophen-2-yl)-7-chloro-2,3-dihydrobenzofuran-2-yl)methyl)-3-(6-aminopyridin-3-yl)acrylamide]	–	–	–	IC50 (MS751 cells; [1]): 0.1 to 5 µM; IC50 (Z138 cells; [2]): 0.1 to 5 µM; IC50 (3T3 cells; [3]): 5 to 30 µM
CC(=O)c1ccc(-c2cc(Cl)c3c(c2)CC(CNC(=O)/C=C/c2ccc(N)nc2)O3)s1 (single isomer, unassigned) [Compound 309, (E)-N-((5-(5-acetylthiophen-2-yl)-7-chloro-2,3-dihydrobenzofuran-2-yl)methyl)-3-(6-aminopyridin-3-yl)acrylamide]	–	–	–	IC50 (MS751 cells; [4]): 0.1 to 5 µM; IC50 (Z138 cells; [5]): < 0.1 µM; IC50 (3T3 cells; [6]): 5 to 30 µM
CC(=O)c1ccc(-c2cc(Cl)c3c(c2)CC(CNC(=O)/C=C\c2cccnc2)O3)s1 (single isomer, unassigned) [Compound 312, (Z)-N-((5-(5-acetylthiophen-2-yl)-7-chloro-2,3-dihydrobenzofuran-2-yl)methyl)-3-(pyridin-3-yl)acrylamide]	–	–	–	IC50 (MS751 cells; [4]): 5 to 30 µM; IC50 (Z138 cells; [2]): 0.1 to 5 µM; IC50 (3T3 cells; [6]): 5 to 30 µM
CC(=O)c1ccc(-c2cc(Cl)c3c(c2)CC(CNC(=O)/C=C\c2cccnc2)O3)s1 (single isomer, unassigned) [Compound 313, (Z)-N-((5-(5-acetylthiophen-2-yl)-7-chloro-2,3-dihydrobenzofuran-2-yl)methyl)-3-(pyridin-3-yl)acrylamide]	–	–	–	IC50 (MS751 cells; [4]): 0.1 to 5 µM; IC50 (Z138 cells; [5]): 0.1 to 5 µM; IC50 (3T3 cells; [6]): > 30 µM
CC(=O)c1ccc(-c2cc(Cl)c3c(c2)CC(CNC(=O)/C=C/c2cccnn2)O3)s1 (single isomer, unassigned) [Compound 317, (E)-N-((5-(5-acetylthiophen-2-yl)-7-chloro-2,3-dihydrobenzofuran-2-yl)methyl)-3-(pyridazin-3-yl)acrylamide]	–	–	–	IC50 (MS751 cells; [1]): 0.1 to 5 µM; IC50 (Z138 cells; [2]): 0.1 to 5 µM; IC50 (3T3 cells; [3]): > 30 µM
CC(=O)c1ccc(-c2cc(Cl)c3c(c2)CC(CNC(=O)/C=C/c2cccnn2)O3)s1 (single isomer, unassigned) [Compound 318, (E)-N-((5-(5-acetylthiophen-2-yl)-7-chloro-2,3-dihydrobenzofuran-2-yl)methyl)-3-(pyridazin-3-yl)acrylamide]	–	–	–	IC50 (MS751 cells; [4]): 0.1 to 5 µM; IC50 (Z138 cells; [5]): 0.1 to 5 µM; IC50 (3T3 cells; [6]): > 30 µM
Cc1ccc(-c2cc(Cl)c3c(c2)CC(CNC(=O)/C=C/c2cccnc2)O3)cc1 (stereo not drawn) [Compound 15, (E)-N-((7-chloro-5-p-tolyl-2,3-dihydrobenzofuran-2-yl)methyl)-3-(pyridin-3-yl) acrylamide]	0.1 to 5	0.1 to 5	5 to 30	–
O=C(/C=C/c1cccnc1)NCC1Cc2cc(-c3ccccc3F)cc(Cl)c2O1 (stereo not drawn) [Compound 18, (E)-N-((7-chloro-5-(2-fluorophenyl)-2,3-dihydrobenzofuran-2-yl)methyl)-3-(pyridin-3-yl)acrylamide]	0.1 to 5	0.1 to 5	5 to 30	–
O=C(/C=C/c1cccnc1)NCC1Cc2cc(-c3cc(F)c(F)c(F)c3)cc(Cl)c2O1 (stereo not drawn) [Compound 21, (E)-N-((7-chloro-5-(3,4,5-trifluorophenyl)-2,3-dihydrobenzofuran-2-yl)methyl)-3-(pyridin-3-yl)acrylamide]	0.1 to 5	0.1 to 5	> 30	–
CC(=O)c1ccc(-c2cc(Cl)c3c(c2)CC(CNC(=O)/C=C/c2ccncc2)O3)s1 (stereo not drawn) [Compound 24, (E)-N-((5-(5-acetylthiophen-2-yl)-7-chloro-2,3-dihydrobenzofuran-2-yl)methyl)-3-(pyridin-4-yl)acrylamide]	> 30	> 30	> 30	–
CC(=O)c1ccc(-c2cc(Cl)c3c(c2)CC(CN)O3)s1 (stereo not drawn) [Compound 26]	5 to 30	5 to 30	5 to 30	–
CC(=O)c1ccc(-c2cc(Cl)c3c(c2)CC(CNC(=O)/C=C/c2cccnc2)O3)s1 (stereo not drawn) [Compound 27, (E)-N-((5-(5-acetylthiophen-2-yl)-7-chloro-2,3-dihydrobenzofuran-2-yl)methyl)-3-(pyridin-3-yl)acrylamide]	< 0.1	< 0.1	0.1 to 5	–
CC(=O)c1ccc(-c2cc(Cl)c3c(c2)CC(CNC(=O)/C=C/c2ccc[n+]([O-])c2)O3)s1 (stereo not drawn) [Compound 28, (E)-N-((5-(5-acetylthiophen-2-yl)-7-chloro-2,3-dihydrobenzofuran-2-yl)methyl)-3-(pyridine-1-oxide-3-yl)acrylamide]	> 30	> 30	> 30	–
O=C(/C=C/c1cccnc1)NCC1Cc2cc(-c3ccc(C(=O)N4CCOCC4)cc3)cc(Cl)c2O1 (stereo not drawn) [Compound 29]	< 0.1	< 0.1	0.1 to 5	–
O=C(/C=C/c1cccnc1)NCC1Cc2cc(-c3cc(Cl)cc(Cl)c3)cc(Cl)c2O1 (stereo not drawn) [Compound 32, (E)-N-((7-chloro-5-(3,5-dichlorophenyl)-2,3-dihydrobenzofuran-2-yl)methyl)-3-(pyridin-3-yl)acrylamide]	0.1 to 5	0.1 to 5	> 30	–
Cc1noc(C)c1-c1cc(Cl)c2c(c1)CC(CNC(=O)/C=C/c1cccnc1)O2 (stereo not drawn) [Compound 35, (E)-N-((7-chloro-5-(3,5-dimethylisoxazol-4-yl)-2,3-dihydrobenzofuran-2-yl)methyl)-3-(pyridin-3-yl)acrylamide]	0.1 to 5	< 0.1	0.1 to 5	–
CC(=O)c1ccc(-c2cc(Cl)c3c(c2)CC(CNC(=O)/C=C/c2ccccc2)O3)s1 (stereo not drawn) [Compound 38, N-((5-(5-acetylthiophen-2-yl)-7-chloro-2,3-dihydrobenzofuran-2-yl)methyl)cinnamamide]	> 30	> 30	> 30	–
COc1cccc(-c2cc(Cl)c3c(c2)CC(CNC(=O)/C=C/c2cccnc2)O3)c1F (stereo not drawn) [Compound 39, (E)-N-((7-chloro-5-(2-fluoro-3-methoxyphenyl)-2,3-dihydrobenzofuran-2-yl)methyl)-3-(pyridin-3-yl)acrylamide]	0.1 to 5	0.1 to 5	0.1 to 5	–
O=C(/C=C/c1cccnc1)NCC1Cc2cc(-c3ccco3)cc(Cl)c2O1 (stereo not drawn) [Compound 42, (E)-N-((7-chloro-5-(furan-2-yl)-2,3-dihydrobenzofuran-2-yl)methyl)-3-(pyridin-3-yl)acrylamide]	0.1 to 5	0.1 to 5	5 to 30	–
CC(=O)c1ccc(-c2cc(Cl)c3c(c2)CC(CNC(=O)/C=C/c2ccc(Cl)nc2)O3)s1 (stereo not drawn) [Compound 45, (E)-N-((5-(5-acetylthiophen-2-yl)-7-chloro-2,3-dihydrobenzofuran-2-yl)methyl)-3-(6-chloropyridin-3-yl)acrylamide]	> 30	> 30	> 30	–
O=C(/C=C/c1cccnc1)NCC1Cc2cc(-c3cc(C(F)(F)F)cc(C(F)(F)F)c3)cc(Cl)c2O1 (stereo not drawn) [Compound 49, (E)-N-((5-(3,5-bis(trifluoromethyl)phenyl)-7-chloro-2,3-dihydrobenzofuran-2-yl)methyl)-3-(pyridin-3-yl)acrylamide]	0.1 to 5	0.1 to 5	0.1 to 5	–
CCOC(=O)c1cccc(-c2cc(Cl)c3c(c2)CC(CNC(=O)/C=C/c2cccnc2)O3)c1 (stereo not drawn) [Compound 52, (E)-ethyl 3-(7-chloro-2-((3-(pyridin-3-yl)acrylamido)methyl)-2,3-dihydrobenzofuran-5-yl)benzoate]	0.1 to 5	0.1 to 5	0.1 to 5	–
